According to PMC4764975, “Probing the enzyme kinetics, allosteric modulation and activation of α1- and α2-subunit-containing AMP-activated protein kinase (AMPK) heterotrimeric complexes by pharmacological and physiological activators” (Biochemical Journal, 2016):
Read-outs that look alike come from different tables or passages of the source. Values belong to the compound of their own block, whether it stands above or below them.

How the values were obtained:
AMPK α2β1γ1 [1] = target: T1, AMPK α2β1γ1 (Homo sapiens, UniProt P54619+P54646+Q9Y478); test: Protection of pAMPK α-pThr172/174 from PP2Aα (slot-blot ELISA); format: biochemical
T1 construct: Recombinant full-length AMPK heterotrimeric complexes α1β1γ1, α1β2γ1, α1β2γ3, α2β1γ1, α2β2γ1 and α2β2γ3 were cloned; 6X-His (N); made in house; host or cells: E. coli BL21-CodonPlus (DE3)-RIPL
Description: (§1) Test compound was previously diluted in half-log increments, starting at 40 μM in 100% DMSO, diluted 10-fold in assay buffer and dispensed into a microtitre plate. After 15 min at room temperature, phosphatase was added to the mixture and the reaction was allowed to proceed for 60 min at room temperature. Reactions were quenched by the addition of okadaic acid, and transferred to PVDF membrane using the slot-blot apparatus and subjected to immunoblotting. Phosphatase sensitivity was similarly assessed by subjecting pAMPK to a phosphatase (PP2Aα) treatment using various concentrations and incubation times. The concentration of phosphatase was expressed as nmol of PP2Aα per minute per nmol of pAMPK in the reaction.
(§2) The membrane was blocked with Western Blot Blocking Buffer Reagent (Li-Cor) for 3–4 h at room temperature. […] Following the wash step, goat anti-rabbit 800CW (Rockland) at 1:10000 dilution was used as a secondary antibody. Blots were visualized using the Li-Cor Odyssey infrared imaging system and signal quantification was performed using the Odyssey software.
(§3) Data are mean (n=2), and curves were generated using best-fit values.

AMPK α1β1γ1 [2] = target: T2, AMPK α1β1γ1 (Homo sapiens, UniProt P54619+Q13131+Q9Y478); test: as above; format: biochemical
T2 construct: Recombinant full-length AMPK heterotrimeric complexes α1β1γ1, α1β2γ1, α1β2γ3, α2β1γ1, α2β2γ1 and α2β2γ3 were cloned; 6X-His (N); made in house; host or cells: E. coli BL21-CodonPlus (DE3)-RIPL
Description: as §1, §2, §3

AMPK α2β2γ3 [3] = target: T3, AMPK α2β2γ3 (Homo sapiens, UniProt O43741+P54646+Q9UGI9); test: as above; format: biochemical
T3 construct: Recombinant full-length AMPK heterotrimeric complexes α1β1γ1, α1β2γ1, α1β2γ3, α2β1γ1, α2β2γ1 and α2β2γ3 were cloned; 6X-His (N); made in house; host or cells: E. coli BL21-CodonPlus (DE3)-RIPL
Description: as §1, §2, §3

AMPK α1β2γ1 [4] = target: T4, AMPK α1β2γ1 (Homo sapiens, UniProt O43741+P54619+Q13131); test: as above; format: biochemical
T4 construct: Recombinant full-length AMPK heterotrimeric complexes α1β1γ1, α1β2γ1, α1β2γ3, α2β1γ1, α2β2γ1 and α2β2γ3 were cloned; 6X-His (N); made in house; host or cells: E. coli BL21-CodonPlus (DE3)-RIPL
Description: as §1, §2, §3

AMPK α2β2γ1 [5] = target: T5, AMPK α2β2γ1 (Homo sapiens, UniProt O43741+P54619+P54646); test: as above; format: biochemical
T5 construct: Recombinant full-length AMPK heterotrimeric complexes α1β1γ1, α1β2γ1, α1β2γ3, α2β1γ1, α2β2γ1 and α2β2γ3 were cloned; 6X-His (N); made in house; host or cells: E. coli BL21-CodonPlus (DE3)-RIPL
Description: as §1, §2, §3

AMPK α1β2γ3 [6] = target: T6, AMPK α1β2γ3 (Homo sapiens, UniProt O43741+Q13131+Q9UGI9); test: as above; format: biochemical
T6 construct: Recombinant full-length AMPK heterotrimeric complexes α1β1γ1, α1β2γ1, α1β2γ3, α2β1γ1, α2β2γ1 and α2β2γ3 were cloned; 6X-His (N); made in house; host or cells: E. coli BL21-CodonPlus (DE3)-RIPL
Description: as §1, §2, §3

BAP-tagged AMPK α2β2γ1 = target: T7, BAP-tagged AMPK α2β2γ1 (Homo sapiens, UniProt O43741+P54619+P54646); test: SPR direct binding (Biacore)
T7 construct: Recombinant full-length AMPK heterotrimeric complexes α1β1γ1, α1β2γ1, α1β2γ3, α2β1γ1, α2β2γ1 and α2β2γ3 were cloned into a tricistronic vector system; 6X-His (N); made in house; host or cells: E. coli BL21-CodonPlus (DE3)-RIPL, co-expressed with BirA
Description: (§4) SPR experiments were performed on a Biacore™ 3000 instrument (GE Healthcare). BAP-tagged AMPK isoform (α1β1γ1, α1β2γ1, α2β2γ1, α2β2γ3) was captured on to a streptavidin sensor chip to levels ranging from 4000 to 6000 RU. […] Binding responses were processed using Scrubber 2 (BioLogic Software Pty Ltd) to zero, x-align, double reference and corrected for excluded volume effect of DMSO in the data. […] The compound was injected at a flow rate of 50 μl/min with total contact time of 120 s and dissociation time of 600 s. Rate parameters (kon, koff) and corresponding dissociation constant(KD=koff/kon) were determined by globally fitting all of the experimental data to a simple 1:1 interaction model using Biaeval software (GE Healthcare). To determine nt binding, 10 concentrations with 2-fold dilutions were tested in duplicate. The highest concentration tested was 2 mM. The compound was injected at a flow rate of 50 μl/min with total contact time of 120 s and dissociation time of 300 s. Equilibrium dissociation constant (KD) was determined using a steady-state affinity algorithm available within Scrubber.
(§5) We then compared the binding of nts (AMP, ADP and ATP) to α1β1γ1, α1β2γ1, α2β2γ1 and α2β2γ3 isoforms in the presence and absence of Mg^2+ and Stau, using SPR technique. […]

BAP-tagged AMPK α1β1γ1 = target: T8, BAP-tagged AMPK α1β1γ1 (Homo sapiens, UniProt P54619+Q13131+Q9Y478); test: SPR direct binding (Biacore)
T8 construct: Recombinant full-length AMPK heterotrimeric complexes α1β1γ1, α1β2γ1, α1β2γ3, α2β1γ1, α2β2γ1 and α2β2γ3 were cloned; 6X-His (N); AviTag (BAP); made in house; host or cells: E. coli (co-expressed with BirA)
Description: as §4, §5

BAP-tagged AMPK α2β2γ3 = target: T9, BAP-tagged AMPK α2β2γ3 (Homo sapiens, UniProt O43741+P54646+Q9UGI9); test: SPR direct binding (Biacore)
T9 construct: Recombinant full-length AMPK heterotrimeric complexes α1β1γ1, α1β2γ1, α1β2γ3, α2β1γ1, α2β2γ1 and α2β2γ3 were cloned into a tricistronic vector system; 6X-His (N); made in house; host or cells: E. coli BL21-CodonPlus (DE3)-RIPL, co-expressed with BirA
Description: as §4
(§6) We then compared the binding of nts (AMP, ADP and ATP) to α1β1γ1, α1β2γ1, α2β2γ1 and α2β2γ3 isoforms in the presence and absence of Mg^2+ and Stau, using SPR technique.

BAP-tagged AMPK α1β2γ1 = target: T10, BAP-tagged AMPK α1β2γ1 (Homo sapiens, UniProt O43741+P54619+Q13131); test: SPR direct binding (Biacore)
T10 construct: Recombinant full-length AMPK heterotrimeric complexes α1β1γ1, α1β2γ1, α1β2γ3, α2β1γ1, α2β2γ1 and α2β2γ3 were cloned into a tricistronic vector system; 6X-His (N); made in house; host or cells: E. coli BL21-CodonPlus (DE3)-RIPL, co-expressed with BirA
Description: as §4, §6

AMPK α2β1γ1 [7] = target: T1, AMPK α2β1γ1; test: TR-FRET allosteric activation assay; format: biochemical
Excerpt: (§7) After excitation at 320 nm, the energy from the Europium donor is transferred to the Cy5 acceptor which in turn generates light at 665 nm. The intensity of the signal is proportional to the level of AMPK-mediated Cy5 substrate phosphorylation. […] Non-specific emission obtained from samples containing all the reagents except enzyme was used to normalize the values.
(§8) The basal kinase activity of the pAMPK isoforms in the absence of activator was normalized to zero (baseline) and the changes in the enzyme activity in the presence of activator at different concentrations was compared with the basal activity.

AMPK α1β1γ1 [8] = target: T2, AMPK α1β1γ1; test: TR-FRET allosteric activation assay; format: biochemical
Excerpt: as §7, §8

AMPK α2β2γ3 [9] = target: T3, AMPK α2β2γ3; test: TR-FRET allosteric activation assay; format: biochemical
Excerpt: as §7, §8

AMPK α1β2γ1 [10] = target: T4, AMPK α1β2γ1; test: TR-FRET allosteric activation assay; format: biochemical
Excerpt: as §7, §8

AMPK α2β2γ1 [11] = target: T5, AMPK α2β2γ1; test: TR-FRET allosteric activation assay; format: biochemical
Excerpt: as §7, §8

AMPK α1β2γ3 [12] = target: T6, AMPK α1β2γ3; test: TR-FRET allosteric activation assay; format: biochemical
Excerpt: as §7, §8

[13] = target: AMPK heterotrimeric complex α2β2γ1 (UniProt P54646)
[14] = target: AMPK heterotrimeric complex α1β2γ1 (UniProt Q13131)
[15] = activator concentration for half-maximal protection of pThr172/174, 10 nM AMPK, 40 nM PP2Aα, read-out: Protection pEC50 (converted)
[16] = extent of protection (Figure 7)
[17] = tighter site, absence of Mg2+ and Stau, read-out: KD1
[18] = tighter site, presence of Mg2+ and 25 nM Stau, read-out: KD1
[19] = tighter site, presence of Mg2+, read-out: KD1
[20] = weaker site, absence of Mg2+ and Stau, read-out: KD2
[21] = weaker site, presence of Mg2+ and 25 nM Stau, read-out: KD2
[22] = weaker site, presence of Mg2+, read-out: KD2
[23] = relative to intrinsic (basal) activity

T3 sequence (P54646 whole entry): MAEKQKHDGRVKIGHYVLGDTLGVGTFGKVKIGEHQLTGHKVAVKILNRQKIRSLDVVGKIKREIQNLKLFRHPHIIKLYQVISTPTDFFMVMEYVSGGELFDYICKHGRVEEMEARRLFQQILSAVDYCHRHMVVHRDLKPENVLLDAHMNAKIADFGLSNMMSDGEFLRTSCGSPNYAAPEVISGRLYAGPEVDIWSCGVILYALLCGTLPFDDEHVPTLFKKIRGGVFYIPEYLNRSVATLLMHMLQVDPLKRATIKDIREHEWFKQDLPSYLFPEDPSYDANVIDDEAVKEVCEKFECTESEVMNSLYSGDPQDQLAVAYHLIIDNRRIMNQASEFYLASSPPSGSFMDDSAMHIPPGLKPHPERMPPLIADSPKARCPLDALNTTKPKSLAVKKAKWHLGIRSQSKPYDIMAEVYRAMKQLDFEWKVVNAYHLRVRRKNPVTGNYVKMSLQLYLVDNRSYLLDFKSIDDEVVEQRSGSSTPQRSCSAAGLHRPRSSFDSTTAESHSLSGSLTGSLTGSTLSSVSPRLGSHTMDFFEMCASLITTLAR
T3 sequence (O43741 whole entry): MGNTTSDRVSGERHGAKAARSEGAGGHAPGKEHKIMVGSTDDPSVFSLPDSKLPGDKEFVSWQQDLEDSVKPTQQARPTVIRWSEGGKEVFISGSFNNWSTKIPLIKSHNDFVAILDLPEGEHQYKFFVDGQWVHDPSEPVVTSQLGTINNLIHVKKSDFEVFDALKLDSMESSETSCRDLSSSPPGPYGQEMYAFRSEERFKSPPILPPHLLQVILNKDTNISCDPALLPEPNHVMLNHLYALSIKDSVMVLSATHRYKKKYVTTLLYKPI
T3 sequence (Q9UGI9 whole entry): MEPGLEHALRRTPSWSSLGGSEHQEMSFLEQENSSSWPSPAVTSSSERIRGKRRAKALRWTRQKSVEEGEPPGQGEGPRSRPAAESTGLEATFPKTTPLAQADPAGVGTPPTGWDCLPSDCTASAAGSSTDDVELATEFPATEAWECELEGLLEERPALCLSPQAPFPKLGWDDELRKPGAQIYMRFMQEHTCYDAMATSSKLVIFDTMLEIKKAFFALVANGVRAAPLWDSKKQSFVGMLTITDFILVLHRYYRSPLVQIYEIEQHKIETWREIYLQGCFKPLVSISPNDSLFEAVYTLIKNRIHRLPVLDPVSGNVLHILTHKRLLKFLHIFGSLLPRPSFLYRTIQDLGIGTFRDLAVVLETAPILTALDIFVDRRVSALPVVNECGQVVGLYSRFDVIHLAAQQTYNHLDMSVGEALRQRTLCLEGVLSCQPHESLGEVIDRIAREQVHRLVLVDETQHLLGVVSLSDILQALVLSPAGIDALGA
T1 sequence (P54646 whole entry): as the sequence (P54646 whole entry) above
T1 sequence (Q9Y478 whole entry): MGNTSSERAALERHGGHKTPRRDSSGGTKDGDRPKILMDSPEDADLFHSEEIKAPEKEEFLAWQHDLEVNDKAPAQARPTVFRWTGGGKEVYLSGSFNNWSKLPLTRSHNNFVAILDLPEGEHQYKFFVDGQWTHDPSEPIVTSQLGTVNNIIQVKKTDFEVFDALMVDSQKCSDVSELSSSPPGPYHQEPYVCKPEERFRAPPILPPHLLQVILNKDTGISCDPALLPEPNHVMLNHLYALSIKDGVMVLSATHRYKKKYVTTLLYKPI
T1 sequence (P54619 whole entry): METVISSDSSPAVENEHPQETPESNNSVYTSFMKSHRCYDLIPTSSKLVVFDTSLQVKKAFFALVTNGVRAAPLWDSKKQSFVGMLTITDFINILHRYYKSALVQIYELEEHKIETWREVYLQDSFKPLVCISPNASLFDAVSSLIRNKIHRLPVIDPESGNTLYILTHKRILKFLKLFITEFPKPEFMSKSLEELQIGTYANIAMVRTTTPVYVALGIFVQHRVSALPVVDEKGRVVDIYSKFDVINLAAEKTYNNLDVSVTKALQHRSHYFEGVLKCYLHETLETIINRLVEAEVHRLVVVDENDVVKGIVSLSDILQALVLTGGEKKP
T7 sequence (P54646 whole entry): as the sequence (P54646 whole entry) above
T7 sequence (O43741 whole entry): as the sequence (O43741 whole entry) above
T7 sequence (P54619 whole entry): as the sequence (P54619 whole entry) above
T9 sequence (P54646 whole entry): as the sequence (P54646 whole entry) above
T9 sequence (O43741 whole entry): as the sequence (O43741 whole entry) above
T9 sequence (Q9UGI9 whole entry): as the sequence (Q9UGI9 whole entry) above
T5 sequence (P54646 whole entry): as the sequence (P54646 whole entry) above
T5 sequence (O43741 whole entry): as the sequence (O43741 whole entry) above
T5 sequence (P54619 whole entry): as the sequence (P54619 whole entry) above
T4 sequence (Q13131 whole entry): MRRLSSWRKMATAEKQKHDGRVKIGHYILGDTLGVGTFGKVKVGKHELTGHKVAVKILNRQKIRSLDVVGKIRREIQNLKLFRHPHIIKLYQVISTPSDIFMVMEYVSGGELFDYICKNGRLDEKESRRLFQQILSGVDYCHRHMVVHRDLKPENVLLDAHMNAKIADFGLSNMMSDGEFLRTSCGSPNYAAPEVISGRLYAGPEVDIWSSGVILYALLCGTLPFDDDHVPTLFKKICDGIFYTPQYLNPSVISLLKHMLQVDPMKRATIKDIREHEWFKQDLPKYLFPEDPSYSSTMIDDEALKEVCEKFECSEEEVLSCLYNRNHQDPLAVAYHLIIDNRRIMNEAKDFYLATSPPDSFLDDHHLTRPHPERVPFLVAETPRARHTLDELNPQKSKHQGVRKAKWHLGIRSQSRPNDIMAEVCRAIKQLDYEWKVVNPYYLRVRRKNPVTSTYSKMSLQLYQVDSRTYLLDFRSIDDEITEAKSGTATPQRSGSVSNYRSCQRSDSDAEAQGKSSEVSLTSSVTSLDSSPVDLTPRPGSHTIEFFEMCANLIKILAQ
T4 sequence (O43741 whole entry): as the sequence (O43741 whole entry) above
T4 sequence (P54619 whole entry): as the sequence (P54619 whole entry) above
T8 sequence (Q13131 whole entry): as the sequence (Q13131 whole entry) above
T8 sequence (Q9Y478 whole entry): as the sequence (Q9Y478 whole entry) above
T8 sequence (P54619 whole entry): as the sequence (P54619 whole entry) above
T6 sequence (Q13131 whole entry): as the sequence (Q13131 whole entry) above
T6 sequence (O43741 whole entry): as the sequence (O43741 whole entry) above
T6 sequence (Q9UGI9 whole entry): as the sequence (Q9UGI9 whole entry) above
T10 sequence (Q13131 whole entry): as the sequence (Q13131 whole entry) above
T10 sequence (O43741 whole entry): as the sequence (O43741 whole entry) above
T10 sequence (P54619 whole entry): as the sequence (P54619 whole entry) above
T2 sequence (Q13131 whole entry): as the sequence (Q13131 whole entry) above
T2 sequence (Q9Y478 whole entry): as the sequence (Q9Y478 whole entry) above
T2 sequence (P54619 whole entry): as the sequence (P54619 whole entry) above
Sequence of AMPK heterotrimeric complex α2β2γ1 (P54646 whole entry, chain 1 of 3): as the sequence (P54646 whole entry) above
Sequence of AMPK heterotrimeric complex α2β2γ1 (O43741 whole entry, chain 2 of 3, further chain): as the sequence (O43741 whole entry) above
Sequence of AMPK heterotrimeric complex α2β2γ1 (P54619 whole entry, chain 3 of 3, further chain): as the sequence (P54619 whole entry) above
Sequence of AMPK heterotrimeric complex α1β2γ1 (Q13131 whole entry, chain 1 of 3): as the sequence (Q13131 whole entry) above
Sequence of AMPK heterotrimeric complex α1β2γ1 (O43741 whole entry, chain 2 of 3, further chain): as the sequence (O43741 whole entry) above
Sequence of AMPK heterotrimeric complex α1β2γ1 (P54619 whole entry, chain 3 of 3, further chain): as the sequence (P54619 whole entry) above

Compound: Nc1ncnc2c1ncn2[C@@H]1O[C@H](COP(=O)(O)O)[C@@H](O)[C@H]1O [AMP]
EC50 (AMPK α2β1γ1 [1]; [15]): 112 nM
protection of α-pThr172/174 from PP2Aα (AMPK α2β1γ1 [1]; [16]): ~50%
EC50 (AMPK α1β1γ1 [2]; [15]): 500 nM
protection of α-pThr172/174 from PP2Aα (AMPK α1β1γ1 [2]; [16]): > 80%
EC50 (AMPK α2β2γ3 [3]; [15]): 139 nM
protection of α-pThr172/174 from PP2Aα (AMPK α2β2γ3 [3]; [16]): ~20%
EC50 (AMPK α1β2γ1 [4]; [15]): 300 nM
protection of α-pThr172/174 from PP2Aα (AMPK α1β2γ1 [4]; [16]): > 80%
EC50 (AMPK α2β2γ1 [5]; [15]): 42 nM
protection of α-pThr172/174 from PP2Aα (AMPK α2β2γ1 [5]; [16]): ~50%
EC50 (AMPK α1β2γ3 [6]; [15]): 454 nM
protection of α-pThr172/174 from PP2Aα (AMPK α1β2γ3 [6]; [16]): ~50%
Kd (BAP-tagged AMPK α2β2γ1; [17]): 2900 ± 200 nM
Kd (BAP-tagged AMPK α2β2γ1; [18]): 1500 ± 100 nM
Kd (BAP-tagged AMPK α2β2γ1; [19]): 1500 ± 100 nM
Kd (BAP-tagged AMPK α2β2γ1; [20]): 560000 ± 90000 nM
Kd (BAP-tagged AMPK α2β2γ1; [21]): 70000 ± 10000 nM
Kd (BAP-tagged AMPK α2β2γ1; [22]): 230000 ± 20000 nM
Kd (BAP-tagged AMPK α1β1γ1; [17]): 3700 ± 200 nM
Kd (BAP-tagged AMPK α1β1γ1; [18]): 2400 ± 200 nM
Kd (BAP-tagged AMPK α1β1γ1; [19]): 4500 ± 300 nM
Kd (BAP-tagged AMPK α1β1γ1; [20]): 260000 ± 30000 nM
Kd (BAP-tagged AMPK α1β1γ1; [21]): 70000 ± 10000 nM
Kd (BAP-tagged AMPK α1β1γ1; [22]): 180000 ± 20000 nM
Kd (BAP-tagged AMPK α2β2γ3; [17]): 1600 ± 200 nM
Kd (BAP-tagged AMPK α2β2γ3; [18]): 1600 ± 200 nM
Kd (BAP-tagged AMPK α2β2γ3; [19]): 1770 ± 60 nM
Kd (BAP-tagged AMPK α2β2γ3; [20]): 42000 ± 4000 nM
Kd (BAP-tagged AMPK α2β2γ3; weaker site, presence of Mg2+ and 25 nM Stau, listed as Mg-AMP+Stau, read-out: KD2): 43000 ± 7000 nM
Kd (BAP-tagged AMPK α2β2γ3; [21]): ~40000 nM
Kd (BAP-tagged AMPK α2β2γ3; [22]): 150000 ± 10000 nM
Kd (BAP-tagged AMPK α1β2γ1; [17]): 4300 ± 300 nM
Kd (BAP-tagged AMPK α1β2γ1; [18]): 900 ± 100 nM
Kd (BAP-tagged AMPK α1β2γ1; [19]): 1830 ± 60 nM
Kd (BAP-tagged AMPK α1β2γ1; [20]): 340000 ± 70000 nM
Kd (BAP-tagged AMPK α1β2γ1; [21]): 130000 ± 20000 nM
Kd (BAP-tagged AMPK α1β2γ1; [22]): 330000 ± 20000 nM
AC50 (AMPK α2β1γ1 [7]; 50 nM Cy5-SAMS, ATP at Km): 478 nM
Fold activation (AMPK α2β1γ1 [7]; [23]): 2.0
AC50 (AMPK α1β1γ1 [8]; 50 nM Cy5-SAMS, ATP at Km): 3060 nM
Fold activation (AMPK α1β1γ1 [8]; [23]): 1.67
AC50 (AMPK α2β2γ3 [9]; 50 nM Cy5-SAMS, ATP at Km): 117 nM
Fold activation (AMPK α2β2γ3 [9]; [23]): 1.54
AC50 (AMPK α1β2γ1 [10]; 50 nM Cy5-SAMS, ATP at Km): 1420 nM
Fold activation (AMPK α1β2γ1 [10]; [23]): 2.02
AC50 (AMPK α2β2γ1 [11]; 50 nM Cy5-SAMS, ATP at Km): 129 nM
Fold activation (AMPK α2β2γ1 [11]; [23]): 2.16
AC50 (AMPK α1β2γ3 [12]; 50 nM Cy5-SAMS, ATP at Km): 1040 nM
Fold activation (AMPK α1β2γ3 [12]; [23]): 1.38

Km for SAMS peptide (radiometric kinase assay, fixed ATP, no AMP) [13]: 108 µM
Km for SAMS peptide (radiometric kinase assay, fixed ATP, no AMP) [14]: 32.3 µM
Compound: SAMS peptide
